The results in this text go back to ChEMBL document CHEMBL1201862, “PubChem BioAssay data set” (2004).

SMILES strings stand for the structures. Activity calls are given as the source filed them. A value given as a limit tells only on which side of the number the result lay.

Assay [1] addresses T1, Methionyl-tRNA synthetase, putative (Trypanosoma brucei brucei, UniProt Q38C91).
T1 sequence (Q38C91 whole entry): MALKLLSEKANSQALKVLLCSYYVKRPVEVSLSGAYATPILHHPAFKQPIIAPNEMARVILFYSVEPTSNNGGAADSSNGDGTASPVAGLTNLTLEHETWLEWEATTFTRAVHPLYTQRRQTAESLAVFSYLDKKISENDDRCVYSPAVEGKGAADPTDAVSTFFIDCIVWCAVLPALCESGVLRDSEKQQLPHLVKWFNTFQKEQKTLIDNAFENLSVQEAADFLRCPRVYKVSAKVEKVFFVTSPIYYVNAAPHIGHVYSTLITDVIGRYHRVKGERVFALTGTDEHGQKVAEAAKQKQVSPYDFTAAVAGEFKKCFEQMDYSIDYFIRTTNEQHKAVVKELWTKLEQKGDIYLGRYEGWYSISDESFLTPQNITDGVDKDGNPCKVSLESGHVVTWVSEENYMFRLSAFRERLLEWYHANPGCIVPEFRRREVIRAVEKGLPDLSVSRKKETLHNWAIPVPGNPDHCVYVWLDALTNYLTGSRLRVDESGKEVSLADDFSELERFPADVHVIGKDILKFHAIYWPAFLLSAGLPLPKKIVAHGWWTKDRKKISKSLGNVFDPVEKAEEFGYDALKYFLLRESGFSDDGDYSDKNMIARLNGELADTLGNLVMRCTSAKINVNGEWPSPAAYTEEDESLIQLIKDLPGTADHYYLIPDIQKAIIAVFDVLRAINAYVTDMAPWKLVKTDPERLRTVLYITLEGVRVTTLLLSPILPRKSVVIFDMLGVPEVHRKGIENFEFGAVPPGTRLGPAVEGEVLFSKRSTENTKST
Type of assay: functional, Trypanosoma brucei brucei strain 927/4 GUTat10.1.

Assay [2] addresses T1, Methionyl-tRNA synthetase, putative. Type of assay: functional, Trypanosoma brucei brucei strain 927/4 GUTat10.1. This is another data set of the same source.
Assay [3] can be described thus: Counterscreen for inhibitors of Trypanosoma brucei methionyl tRNA synthetase (MetRS): Luminescence-based cell-based high throughput dose response assay to identify compounds that are cytotoxic to Jurkat human T lymphocyte cells. Type of assay: functional. On the technique in general: A counterscreen serves to expose hits that act by an unwanted route or on another target.

Assay [4] has as its target T2, Apoptotic protease-activating factor 1 (Homo sapiens, UniProt O14727).
T2 sequence (O14727 whole entry): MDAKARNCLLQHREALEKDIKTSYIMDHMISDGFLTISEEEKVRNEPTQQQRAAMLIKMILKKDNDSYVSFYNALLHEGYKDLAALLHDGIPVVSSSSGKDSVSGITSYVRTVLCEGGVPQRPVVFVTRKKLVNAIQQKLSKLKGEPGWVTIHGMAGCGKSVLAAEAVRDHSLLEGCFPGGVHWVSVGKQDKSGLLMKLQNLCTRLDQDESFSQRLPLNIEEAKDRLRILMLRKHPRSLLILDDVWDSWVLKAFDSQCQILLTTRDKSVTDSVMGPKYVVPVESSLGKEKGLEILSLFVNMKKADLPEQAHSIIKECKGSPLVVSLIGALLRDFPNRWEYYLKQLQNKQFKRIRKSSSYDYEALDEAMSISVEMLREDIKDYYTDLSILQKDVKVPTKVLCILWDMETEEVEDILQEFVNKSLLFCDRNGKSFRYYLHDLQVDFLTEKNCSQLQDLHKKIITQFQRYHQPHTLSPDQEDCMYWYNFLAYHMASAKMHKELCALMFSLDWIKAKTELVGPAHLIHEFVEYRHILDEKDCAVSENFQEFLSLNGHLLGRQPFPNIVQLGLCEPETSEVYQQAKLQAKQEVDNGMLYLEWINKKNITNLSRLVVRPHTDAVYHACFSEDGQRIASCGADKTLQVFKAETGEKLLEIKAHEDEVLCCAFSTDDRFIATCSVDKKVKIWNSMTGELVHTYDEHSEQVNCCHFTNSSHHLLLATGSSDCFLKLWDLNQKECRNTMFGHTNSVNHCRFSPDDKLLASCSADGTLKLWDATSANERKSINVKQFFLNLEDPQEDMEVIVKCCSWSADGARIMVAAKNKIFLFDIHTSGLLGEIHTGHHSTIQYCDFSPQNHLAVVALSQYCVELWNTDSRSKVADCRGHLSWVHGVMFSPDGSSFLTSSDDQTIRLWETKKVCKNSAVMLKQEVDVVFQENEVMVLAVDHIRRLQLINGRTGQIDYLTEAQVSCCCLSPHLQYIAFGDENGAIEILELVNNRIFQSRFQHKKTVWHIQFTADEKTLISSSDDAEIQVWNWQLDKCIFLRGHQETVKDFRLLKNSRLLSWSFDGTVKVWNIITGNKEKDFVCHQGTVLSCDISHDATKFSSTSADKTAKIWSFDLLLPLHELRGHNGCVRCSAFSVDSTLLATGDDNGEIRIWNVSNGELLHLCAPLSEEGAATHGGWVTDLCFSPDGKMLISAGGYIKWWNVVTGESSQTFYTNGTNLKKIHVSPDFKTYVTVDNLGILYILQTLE
Type of assay: functional.

Assay [5] deals with T3, Adenosylmethionine-8-amino-7-oxononanoate aminotransferase (Mycobacterium tuberculosis, UniProt P9WQ81).
T3 sequence (P9WQ81 whole entry): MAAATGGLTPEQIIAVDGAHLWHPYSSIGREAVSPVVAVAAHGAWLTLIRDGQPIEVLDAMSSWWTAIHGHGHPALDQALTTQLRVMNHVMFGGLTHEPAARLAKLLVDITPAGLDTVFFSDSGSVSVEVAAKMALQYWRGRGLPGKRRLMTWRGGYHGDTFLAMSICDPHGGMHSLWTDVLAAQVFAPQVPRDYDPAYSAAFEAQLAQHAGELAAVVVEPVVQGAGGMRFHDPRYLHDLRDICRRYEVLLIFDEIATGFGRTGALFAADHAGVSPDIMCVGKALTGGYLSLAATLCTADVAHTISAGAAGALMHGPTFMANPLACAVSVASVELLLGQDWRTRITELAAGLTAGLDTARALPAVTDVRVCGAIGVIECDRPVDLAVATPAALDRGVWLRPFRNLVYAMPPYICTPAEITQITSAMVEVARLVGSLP
Briefly: Mycobacterium tuberculosis BioA enzyme inhibitor Measured in Biochemical System Using Plate Reader - 2163-02_Inhibitor_Dose_CherryPick_Activity. Type of assay: functional, Mycobacterium tuberculosis UT205.

Assay [6] has as its target T4, Protein Tat (Human immunodeficiency virus type 1 group M subtype B (isolate HXB2)(HIV-1), UniProt P04608).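 Note: tat binding to TAR RNA read out by fluorescence polarization.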
T4 sequence (P04608 whole entry): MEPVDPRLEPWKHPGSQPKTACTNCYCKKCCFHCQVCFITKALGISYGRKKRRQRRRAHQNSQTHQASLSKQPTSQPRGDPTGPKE
Type of assay: functional.

Assay [7] concerns the target T5, fMet-Leu-Phe receptor (Homo sapiens, UniProt P21462).
T5 sequence (P21462 whole entry): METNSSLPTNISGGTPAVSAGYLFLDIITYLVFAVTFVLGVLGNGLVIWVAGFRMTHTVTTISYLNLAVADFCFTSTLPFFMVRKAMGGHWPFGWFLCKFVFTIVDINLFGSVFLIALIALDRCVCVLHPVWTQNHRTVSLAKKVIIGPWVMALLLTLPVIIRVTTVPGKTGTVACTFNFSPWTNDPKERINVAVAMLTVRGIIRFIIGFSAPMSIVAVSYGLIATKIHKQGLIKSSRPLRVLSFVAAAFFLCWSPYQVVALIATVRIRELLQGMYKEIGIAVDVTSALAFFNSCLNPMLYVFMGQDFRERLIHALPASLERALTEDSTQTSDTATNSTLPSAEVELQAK
In words: formyl peptide receptor binders – dose response (AID 519). Type of assay: functional.

Assay [8] addresses Albumin (Bos taurus, UniProt P02769). In words: Counterscreen for inhibitors of T-cell receptor (TCR)-CD3 interaction: Fluorescence-based biochemical high throughput dose response assay to identify inhibitors of T-cell receptor (TCR)-CD3 interaction using a TAMRA-labeled BSA probe. Type of assay: functional.
The test system of assay [9] is H9c2. In words: cells. Type of assay: functional, cell-based. Particulars: Rattus norvegicus, H9c2, Myocardium.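 Note: confirmatory concentration-response retest of ultra-high-throughput screening hits for modulation of myocardial damage; cell death induced by hydrogen peroxide oxidative stress; compound pretreatment for 60 min then peroxide exposure for 2 h; potency is for protecting the cells against peroxide damage rather than for killing them.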
Assay [10] concerns the target T6, Streptokinase A (Streptococcus pyogenes serotype M1, UniProt P10520).
T6 sequence (P10520 whole entry): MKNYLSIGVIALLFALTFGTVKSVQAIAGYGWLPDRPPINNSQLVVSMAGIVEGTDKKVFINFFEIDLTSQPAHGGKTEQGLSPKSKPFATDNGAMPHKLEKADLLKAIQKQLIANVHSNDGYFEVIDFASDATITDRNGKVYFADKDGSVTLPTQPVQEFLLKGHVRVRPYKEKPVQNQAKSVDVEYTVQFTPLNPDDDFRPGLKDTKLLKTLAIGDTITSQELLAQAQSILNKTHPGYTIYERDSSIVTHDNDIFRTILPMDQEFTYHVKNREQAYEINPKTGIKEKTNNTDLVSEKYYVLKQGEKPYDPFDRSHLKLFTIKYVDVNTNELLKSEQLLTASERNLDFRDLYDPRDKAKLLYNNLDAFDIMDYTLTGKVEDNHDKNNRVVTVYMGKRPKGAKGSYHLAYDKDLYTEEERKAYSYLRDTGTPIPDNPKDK
Briefly: viability-normalized secreted streptokinase activity reduction – plasminogen activation absorbance, OD405, dose response (AID 1914).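 Note: secreted streptokinase activity via plasminogen activation per viability signal from cell pellet.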 Type of assay: functional, Streptococcus pyogenes M1 GAS.

The test system of assay [11] is Streptococcus sp. 'group A'. Briefly: Streptococcus pyogenes SK(-)GAS viability under kanamycin – luminescence, BacTiterGlo, confirmation, counter-screen for streptokinase expression inhibitor project, dose response (AID 1900). Type of assay: functional, organism-based.
Assay [12] has as its system Streptococcus. Briefly: GAS UMAA2166 growth inhibition – luminescence, BacTiterGlo, counter-screen for streptokinase expression inhibitor project, dose response (AID 1915).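 Note: potency for reduction of bacterial viability or growth.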 Type of assay: functional, organism-based.
A short description of assay [13]: intracellular Trypanosoma cruzi inhibitors in host cells – cell-based, plate reader, cherry-pick samples, set 3, dose response (AID 651818).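 Note: compounds incubated with infected cells for about four days.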 Type of assay: functional.
Assay [14] has as its target Potassium channel subfamily K member 9 (Homo sapiens, UniProt Q9NPC2). Briefly: KCNK9 flux blockade, concentration-response – cell-based, FluxOR thallium flux, selectivity assay for TASK1 inhibitor project, SAR follow-up (AID 652211).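 Note: potency is for inhibitors of the channel.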 Type of assay: functional.
For assay [15], the target named is Cytochrome P450 2C9 (Homo sapiens, UniProt P11712).
Chain of Cytochrome P450 2C9 (P11712 whole entry): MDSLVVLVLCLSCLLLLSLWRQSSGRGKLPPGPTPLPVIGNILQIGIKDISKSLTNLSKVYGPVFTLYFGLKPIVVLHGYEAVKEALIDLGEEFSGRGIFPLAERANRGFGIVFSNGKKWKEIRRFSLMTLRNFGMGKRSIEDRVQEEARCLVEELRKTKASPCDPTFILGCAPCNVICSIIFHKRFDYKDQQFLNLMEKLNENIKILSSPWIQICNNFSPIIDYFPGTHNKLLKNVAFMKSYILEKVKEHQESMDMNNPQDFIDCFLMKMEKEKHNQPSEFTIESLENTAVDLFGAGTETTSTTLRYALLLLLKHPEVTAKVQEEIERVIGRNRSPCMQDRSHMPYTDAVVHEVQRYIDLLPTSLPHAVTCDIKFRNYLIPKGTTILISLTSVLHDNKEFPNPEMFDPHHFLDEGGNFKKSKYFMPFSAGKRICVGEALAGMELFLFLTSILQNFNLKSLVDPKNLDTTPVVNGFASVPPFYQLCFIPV

Chain of Albumin (P02769 whole entry): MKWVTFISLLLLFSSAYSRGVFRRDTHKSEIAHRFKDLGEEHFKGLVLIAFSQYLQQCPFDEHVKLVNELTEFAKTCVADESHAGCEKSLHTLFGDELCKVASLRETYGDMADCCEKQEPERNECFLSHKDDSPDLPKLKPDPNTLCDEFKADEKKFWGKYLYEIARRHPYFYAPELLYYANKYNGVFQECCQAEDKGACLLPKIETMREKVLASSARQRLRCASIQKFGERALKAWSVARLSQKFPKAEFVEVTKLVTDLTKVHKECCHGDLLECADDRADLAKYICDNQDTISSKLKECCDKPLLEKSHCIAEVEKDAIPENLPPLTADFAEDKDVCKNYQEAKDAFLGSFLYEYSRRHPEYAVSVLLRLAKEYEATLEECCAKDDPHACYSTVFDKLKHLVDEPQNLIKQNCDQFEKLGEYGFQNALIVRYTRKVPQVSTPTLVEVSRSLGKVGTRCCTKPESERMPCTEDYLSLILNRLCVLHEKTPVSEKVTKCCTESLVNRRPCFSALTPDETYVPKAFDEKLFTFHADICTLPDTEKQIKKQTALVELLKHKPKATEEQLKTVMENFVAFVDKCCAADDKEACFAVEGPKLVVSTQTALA
Chain of Potassium channel subfamily K member 9 (Q9NPC2 whole entry): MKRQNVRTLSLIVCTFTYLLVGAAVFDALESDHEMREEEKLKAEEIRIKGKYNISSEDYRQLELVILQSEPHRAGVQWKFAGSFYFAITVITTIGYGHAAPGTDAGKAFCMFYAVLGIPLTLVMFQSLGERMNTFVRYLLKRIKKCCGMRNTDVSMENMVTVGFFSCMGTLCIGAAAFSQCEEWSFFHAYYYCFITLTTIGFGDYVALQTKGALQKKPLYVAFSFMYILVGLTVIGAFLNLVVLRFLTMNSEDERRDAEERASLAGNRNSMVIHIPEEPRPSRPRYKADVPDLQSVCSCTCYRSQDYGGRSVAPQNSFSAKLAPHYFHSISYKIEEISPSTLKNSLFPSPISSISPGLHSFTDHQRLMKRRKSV

In general, IC50 refers to the point on the concentration scale where inhibition reaches its midpoint. Turning to `O=C(COC(=O)CCCOc1ccc(Cl)cc1Cl)NCc1ccccc1`, the IC50 is 11.3 µM (inactive) in [1], 16.4 µM (inactive) in assay [2] and 83.3 µM (inactive) in assay [3]. `N#Cc1c(N(CCO)CCO)nc(N)c2c(N)nc3c(c12)CC(=O)N3Cc1cccs1`: the concentration for half-maximal inhibition (IC50) in assay [4] was 20.7 µM (active). As usually defined, the AC50 is the concentration at which the activity in the assay is half-maximal. As to `O=C(Nc1ncc2c(n1)CC(c1cccc(Cl)c1)CC2=O)c1ccco1` (centres undefined), the AC50 in assay [5] is 1.95 µM (active).

Regarding `CCc1ccc(CC)c(S(=O)(=O)Nc2ccc(C(=O)O)c(O)c2)c1`, the half-maximal inhibitory concentration (IC50) in assay [6] was > 100 µM (active). The term Ki denotes the equilibrium dissociation constant of an inhibitor or competing ligand from its target. As to `O=C(NCCCN1CCN(c2ccc(F)cc2)CC1)c1cccc(N2CCCC2=O)c1`, the Ki in [7] was > 66.7 µM (inactive).

For the compound `COc1cccc(NC(=O)CN(C)CC(=O)Nc2ccc(Br)cc2)c1`, the IC50 in assay [1] is 51.2 µM (inactive); in assay [2], 13.2 µM (inactive); in assay [3], 83.3 µM (inactive). As usually defined, the EC50 is the concentration that produces a half-maximal response. For the compound `Cc1cc(C)c(C)c(S(=O)(=O)N2CCC(C(=O)NNC(=O)c3ccccc3O)CC2)c1C`, the IC50 in assay [8] is > 94.1 µM (inactive); in assay [9], 31.7 µM (inactive). Also, the EC50 in [10] was > 150 µM (not active); in assay [11], 17 µM (active); in [12] it was > 150 µM (not active). Turning to `CCOc1ccc(CCNC(=O)c2cnc(C)cn2)cc1OCC`, in [5], the AC50 was 2.54 µM (active).

For `COc1ccc(-c2nc3oc4cc(OC)ccc4c(=O)c3c(=O)n2Cc2ccco2)cc1`, the IC50 in assay [6] is > 100 µM (active). For `O=C1NC(=S)NC1=Cc1ccco1`, the IC50 in [8] was > 94.1 µM (inactive).

`CCc1nc2ccc(Br)cc2c(=O)n1-c1ccccc1C(F)(F)F`: the AC50 in assay [5] was 0.966 µM (active).

For the compound `Cc1ccc(S(=O)(=O)N2CCC(C(=O)NNC(=O)c3ccccc3O)CC2)cc1`, the IC50 in assay [8] is > 94.1 µM (inactive). For the compound `C[C@H](CO)N1C[C@H](C)[C@H](CN(C)Cc2ccc(Oc3ccccc3)cc2)Oc2c(NC(=O)Nc3cccc4ccccc34)cccc2C1=O`, the AC50 in assay [13] is 3.24 µM (active). As to `C[C@H]1CN([C@@H](C)CO)C(=O)Cc2cc(NC(=O)Nc3ccc(C(F)(F)F)cc3)ccc2O[C@H]1CN(C)Cc1ccc2c(c1)OCO2`, the AC50 in assay [13] is 4.99 µM (active).

For the compound `C[C@@H]1CN([C@H](C)CO)C(=O)Cc2cc(NS(=O)(=O)c3cccs3)ccc2O[C@@H]1CN(C)Cc1ccc(C(=O)Nc2ccccc2N)cc1`, in assay [13], the AC50 was 4.03 µM (active).

For the compound `CS(=O)(=O)N1[C@H](C(=O)NCc2ccncc2)[C@@H](CO)[C@@H]2Cn3c(ccc(C4=CCCCC4)c3=O)[C@@H]21`, the AC50 in assay [5] is 6.52 µM (active). Consider `C[C@@H]1CN([C@H](C)CO)C(=O)Cc2cc(NC(=O)Cc3cn(C)c4ccccc34)ccc2O[C@H]1CN(C)Cc1ccc(C(F)(F)F)cc1`, for which the AC50 in [13] was 3.42 µM (active). As for `CC(C)Oc1ccccc1C(=O)Nc1cccc(NC(=O)c2ccccc2OC(F)(F)F)c1`, the IC50 in assay [14] is 0.07 µM (active). For the compound `COc1ccccc1C(=O)Nc1cccc(NC(=O)c2ccccc2C(C)C)c1`, in assay [14], the IC50 is 0.74 µM (active). With `CCC(CC)C(=O)/N=c1\c2cnn(-c3ccccc3)c2[nH]c(=O)n1-c1ccccc1`, in assay [15], the AC50 was 28.2 µM (inconclusive). Further, the Ki in [7] was 49.8 µM (inactive).
